We go through 14 molecules from patent US10538555B2, “Macrocyclic inhibitors of the PD-1/PD-L1 and CD80(B7-1)/PD-L1 protein/protein interactions” (BRISTOL-MYERS SQUIBB COMPANY, priority 2014, dated 2020).

In the assay the target is T1, Human PD-L1/PD-1 (Homo sapiens, UniProt Q9NZQ7).
T1 construct: TVMV protease cleavage site (C); made in house; host or cells: HEK293T cells
Description: HTRF Human PD-L1/PD-1 binding assay (PD-1-Ig/PD-L1-His). Particulars: PD-L1-His 10 nM, PD-1-Ig 20 nM; class symbol; read-out: HTRF Human PD-L1/PD-1 Binding Assay IC50 Range. The method in brief: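 Soluble HEK293T-expressed proteins: hPD-L1-His 10 nM, hPD-1-Ig 20 nM final. Cpd + PD-L1 15 min, + PD-1 15 min, + Eu anti-Ig 1 nM/APC anti-His 20 nM 30 min. Buffer dPBS, 0.1% BSA, 0.05% Tween-20. TR-FRET 665/620.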

*1 amine or outer side, *2 acyl side, *3 side chain or, on linkers, in order; H or OH if unused. Where a SMILES comes first, the peptide text is derived from it. Bridges are numbered along the chain shown (N, C = ends). [ ]: non-standard residue; d: D form. ξ: configuration not given here. Trp(1-CH2COOH) = N[C@@H](Cc1cn(CC(=O)O)c2ccccc12)C(=O)O; Phe(3,4,5-F3) = N[C@@H](Cc1cc(F)c(F)c(F)c1)C(=O)O; X6 = NC(=O)CCC(=O)[C@H](CSCC(=O)[*:2])N[*:1]; Phe(4-F) = N[C@@H](Cc1ccc(F)cc1)C(=O)O; NMeIle(3ξ) = CCC(C)[C@H](NC)C(=O)O; NMeF = CN[C@@H](Cc1ccccc1)C(=O)O; X1 = O=C([C@H]1COCCN1[*:1])[*:2]; dHyp = O=C(O)[C@H]1C[C@H](O)CN1; NMehSer = CN[C@@H](CCO)C(=O)O; NMeNle = CCCC[C@H](NC)C(=O)O; dPip = O=C(O)[C@H]1CCCCN1; Orn = NCCC[C@H](N)C(=O)O; Dab = NCC[C@H](N)C(=O)O

T1 sequence (Q9NZQ7 with tags, fused parts or gaps): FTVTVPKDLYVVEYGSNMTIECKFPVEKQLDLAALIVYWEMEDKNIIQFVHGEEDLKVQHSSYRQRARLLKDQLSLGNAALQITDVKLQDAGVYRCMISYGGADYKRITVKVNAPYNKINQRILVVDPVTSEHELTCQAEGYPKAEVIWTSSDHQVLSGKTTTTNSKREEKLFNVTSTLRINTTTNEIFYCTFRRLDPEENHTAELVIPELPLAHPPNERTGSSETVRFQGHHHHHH

On to `CCCC[C@H]1C(=O)N2CCC[C@@H]2C(=O)N[C@@H](CC(=O)O)C(=O)N[C@@H](C(C)C)C(=O)N(C)[C@@H](C(C)CC)C(=O)N[C@@H](CCC(N)=O)C(=O)N2CCC[C@@H]2C(=O)N[C@@H](Cc2c[nH]c3ccccc23)C(=O)N[C@@H](Cc2ccc(O)cc2)C(=O)N[C@@H](CC(C)C)C(=O)N[C@H](C(=O)NCC(N)=O)CSCC(=O)N[C@@H](Cc2ccc(F)cc2)C(=O)N(C)[C@@H](Cc2ccccc2)C(=O)N1C` (some centres unmarked) [Example 9260] ({CH2CO}-[Phe(4-F)][NMeF][NMeNle][dP]DV[NMeIle(3ξ)]Q[dP]WYLCG-NH2; thioether N-13), for which the IC50 fell in the range of 1000 to 10000 nM. With `CCCC[C@H]1C(=O)N2CCC[C@@H]2C(=O)N[C@@H](CC(=O)O)C(=O)N[C@@H](C(C)C)C(=O)N(C)[C@@H](C(C)CC)C(=O)N[C@@H](CCC(N)=O)C(=O)N2CCCC[C@@H]2C(=O)N[C@@H](Cc2c[nH]c3ccccc23)C(=O)N[C@@H](Cc2ccc(O)cc2)C(=O)N[C@@H](CC(C)C)C(=O)N[C@H](C(=O)NCC(N)=O)CSCC(=O)N[C@@H](Cc2ccc(F)cc2)C(=O)N(C)[C@@H](Cc2ccccc2)C(=O)N1C` (some centres unmarked) [Example 9261] ({CH2CO}-[Phe(4-F)][NMeF][NMeNle][dP]DV[NMeIle(3ξ)]Q[dPip]WYLCG-NH2; thioether N-13) the figure was 1000 to 10000 nM; with `CCCC[C@H]1C(=O)N2CCC[C@@H]2C(=O)N[C@@H](CC(=O)O)C(=O)N[C@@H](C(C)C)C(=O)N(C)[C@@H](C(C)CC)C(=O)N[C@@H](CCC(N)=O)C(=O)N2CCC[C@@H]2C(=O)N[C@@H](Cc2c[nH]c3ccccc23)C(=O)N[C@@H](Cc2ccc(O)cc2)C(=O)N[C@@H](CCCN)C(=O)N[C@H](C(=O)NCC(N)=O)CSCC(=O)N[C@@H](Cc2ccc(F)cc2)C(=O)N(C)[C@@H](Cc2ccccc2)C(=O)N1C` (some centres unmarked) [Example 9262] ({CH2CO}-[Phe(4-F)][NMeF][NMeNle][dP]DV[NMeIle(3ξ)]Q[dP]WY[Orn]CG-NH2; thioether N-13), 1000 to 10000 nM. Regarding `CCCC[C@H]1C(=O)N2CCC[C@@H]2C(=O)N[C@@H](CC(=O)O)C(=O)N[C@@H](C(C)C)C(=O)N(C)[C@@H](C(C)CC)C(=O)N[C@@H](CCC(N)=O)C(=O)N2CCCC[C@@H]2C(=O)N[C@@H](Cc2c[nH]c3ccccc23)C(=O)N[C@@H](Cc2ccc(O)cc2)C(=O)N[C@@H](CCCN)C(=O)N[C@H](C(=O)NCC(N)=O)CSCC(=O)N[C@@H](Cc2ccc(F)cc2)C(=O)N(C)[C@@H](Cc2ccccc2)C(=O)N1C` (some centres unmarked) [Example 9263] ({CH2CO}-[Phe(4-F)][NMeF][NMeNle][dP]DV[NMeIle(3ξ)]Q[dPip]WY[Orn]CG-NH2; thioether N-13), the IC50 was in the range of 1000 to 10000 nM.

Take `COCC[C@H]1C(=O)N2C[C@@H](O)C[C@@H]2C(=O)N[C@@H](CC(=O)O)C(=O)N[C@@H](C(C)C)C(=O)N(C)[C@@H](Cc2ccccc2)C(=O)N[C@@H](Cc2ccc(O)cc2)C(=O)N2CCOC[C@@H]2C(=O)N[C@@H](Cc2c[nH]c3ccccc23)C(=O)N[C@@H](Cc2ccc(O)cc2)C(=O)N[C@@H](CC(C)C)C(=O)N[C@H](C(=O)NCC(N)=O)CSCC(=O)N[C@@H](Cc2cc(F)c(F)c(F)c2)C(=O)N(C)[C@@H](Cc2ccccc2)C(=O)N1C` [Example 9264] ({CH2CO}-[Phe(3,4,5-F3)][NMeF][NMehSer](Me)[dHyp]DV[NMeF]Y[X1]WYLCG-NH2; thioether N-13): the IC50 lay within 1 to 9.9 nM. The value for `COCC[C@H]1C(=O)N2C[C@@H](O)C[C@@H]2C(=O)N[C@@H](CC(=O)O)C(=O)N[C@@H](C(C)C)C(=O)N(C)[C@@H](Cc2ccccc2)C(=O)N[C@@H](Cc2ccc(O)cc2)C(=O)N2CCOC[C@@H]2C(=O)N[C@@H](Cc2c[nH]c3ccccc23)C(=O)N[C@@H](Cc2ccc(O)cc2)C(=O)N[C@@H](CCCN)C(=O)N[C@H](C(=O)NCC(N)=O)CSCC(=O)N[C@@H](Cc2cc(F)c(F)c(F)c2)C(=O)N(C)[C@@H](Cc2ccccc2)C(=O)N1C` [Example 9265] ({CH2CO}-[Phe(3,4,5-F3)][NMeF][NMehSer](Me)[dHyp]DV[NMeF]Y[X1]WY[Orn]CG-NH2; thioether N-13) was 1 to 9.9 nM; that for `COCC[C@H]1C(=O)N2C[C@@H](O)C[C@@H]2C(=O)N[C@@H](CC(=O)O)C(=O)N[C@@H](C(C)C)C(=O)N(C)[C@@H](Cc2ccccc2)C(=O)N[C@@H](CCC(N)=O)C(=O)N2CCOC[C@@H]2C(=O)N[C@@H](Cc2c[nH]c3ccccc23)C(=O)N[C@@H](Cc2ccc(O)cc2)C(=O)N[C@@H](CC(C)C)C(=O)N[C@H](C(=O)NCC(N)=O)CSCC(=O)N[C@@H](Cc2cc(F)c(F)c(F)c2)C(=O)N(C)[C@@H](Cc2ccccc2)C(=O)N1C` [Example 9266] ({CH2CO}-[Phe(3,4,5-F3)][NMeF][NMehSer](Me)[dHyp]DV[NMeF]Q[X1]WYLCG-NH2; thioether N-13) was 1 to 9.9 nM. With `COCC[C@H]1C(=O)N2C[C@@H](O)C[C@@H]2C(=O)N[C@@H](CC(=O)O)C(=O)N[C@@H](C(C)C)C(=O)N(C)[C@@H](Cc2ccccc2)C(=O)N[C@@H](CCC(N)=O)C(=O)N2CCOC[C@@H]2C(=O)N[C@@H](Cc2c[nH]c3ccccc23)C(=O)N[C@@H](Cc2ccc(O)cc2)C(=O)N[C@@H](CCCN)C(=O)N[C@H](C(=O)NCC(N)=O)CSCC(=O)N[C@@H](Cc2cc(F)c(F)c(F)c2)C(=O)N(C)[C@@H](Cc2ccccc2)C(=O)N1C` [Example 9267] ({CH2CO}-[Phe(3,4,5-F3)][NMeF][NMehSer](Me)[dHyp]DV[NMeF]Q[X1]WY[Orn]CG-NH2; thioether N-13) the figure was 1 to 9.9 nM; with `COCC[C@H]1C(=O)N2C[C@@H](O)C[C@@H]2C(=O)N[C@@H](CC(=O)O)C(=O)N[C@@H](C(C)C)C(=O)N(C)[C@@H](Cc2ccccc2)C(=O)N[C@@H](CCC(=O)O)C(=O)N2CCOC[C@@H]2C(=O)N[C@@H](Cc2c[nH]c3ccccc23)C(=O)N[C@@H](Cc2ccc(O)cc2)C(=O)N[C@@H](CCCN)C(=O)N[C@H](C(=O)NCC(N)=O)CSCC(=O)N[C@@H](Cc2cc(F)c(F)c(F)c2)C(=O)N(C)[C@@H](Cc2ccccc2)C(=O)N1C` [Example 9268] ({CH2CO}-[Phe(3,4,5-F3)][NMeF][NMehSer](Me)[dHyp]DV[NMeF]E[X1]WY[Orn]CG-NH2; thioether N-13), 1 to 9.9 nM. The value for `COCC[C@H]1C(=O)N2C[C@@H](O)C[C@@H]2C(=O)N[C@@H](CC(=O)O)C(=O)N[C@@H](C(C)C)C(=O)N(C)[C@@H](Cc2ccccc2)C(=O)N[C@@H](CC(=O)O)C(=O)N2CCOC[C@@H]2C(=O)N[C@@H](Cc2c[nH]c3ccccc23)C(=O)N[C@@H](Cc2ccc(O)cc2)C(=O)N[C@@H](CCCN)C(=O)N[C@H](C(=O)NCC(N)=O)CSCC(=O)N[C@@H](Cc2cc(F)c(F)c(F)c2)C(=O)N(C)[C@@H](Cc2ccccc2)C(=O)N1C` [Example 9269] ({CH2CO}-[Phe(3,4,5-F3)][NMeF][NMehSer](Me)[dHyp]DV[NMeF]D[X1]WY[Orn]CG-NH2; thioether N-13) was 1 to 9.9 nM. `CCCC[C@H]1C(=O)N2C[C@@H](O)C[C@@H]2C(=O)N[C@@H](CC(=O)O)C(=O)N[C@@H](C(C)C)C(=O)N(C)[C@@H](Cc2ccccc2)C(=O)N[C@@H](CCC(=O)O)C(=O)N2CCOC[C@@H]2C(=O)N[C@@H](Cc2cn(CC(=O)O)c3ccccc23)C(=O)N[C@@H](Cc2ccc(O)cc2)C(=O)N[C@@H](CCCN)C(=O)N[C@H](C(=O)NCC(N)=O)CSCC(=O)N[C@@H](Cc2cc(F)c(F)c(F)c2)C(=O)N(C)[C@@H](Cc2ccccc2)C(=O)N1C` [Example 9270] ({CH2CO}-[Phe(3,4,5-F3)][NMeF][NMeNle][dHyp]DV[NMeF]E[X1][Trp(1-CH2COOH)]Y[Orn]CG-NH2; thioether N-13): the IC50 was in the range of 1 to 9.9 nM. In the case of `CCCC[C@H]1C(=O)N2C[C@@H](O)C[C@@H]2C(=O)N[C@@H](CC(=O)O)C(=O)N[C@@H](C(C)C)C(=O)N(C)[C@@H](Cc2ccccc2)C(=O)N[C@@H](CCC(=O)O)C(=O)N2CCOC[C@@H]2C(=O)N[C@@H](Cc2cn(CC(=O)O)c3ccccc23)C(=O)N[C@@H](Cc2ccc(O)cc2)C(=O)N[C@@H](CCN)C(=O)N[C@H](C(=O)CCC(N)=O)CSCC(=O)N[C@@H](Cc2cc(F)c(F)c(F)c2)C(=O)N(C)[C@@H](Cc2ccccc2)C(=O)N1C` [Example 9271] (cyclo(DV[NMeF]E[X1][Trp(1-CH2COOH)]Y[Dab][X6][Phe(3,4,5-F3)][NMeF][NMeNle][dHyp])), the IC50 lay in the range of 1 to 9.9 nM. The value for `CCCC[C@H]1C(=O)N2C[C@@H](O)C[C@@H]2C(=O)N[C@@H](CC(=O)O)C(=O)N[C@@H](C(C)C)C(=O)N(C)[C@@H](Cc2ccccc2)C(=O)N[C@@H](Cc2ccc(O)cc2)C(=O)N2C[C@@H](O)C[C@@H]2C(=O)N[C@@H](Cc2c[nH]c3ccccc23)C(=O)N[C@@H](Cc2ccc(O)cc2)C(=O)N[C@@H](CC(C)C)C(=O)N[C@H](C(=O)NCC(N)=O)CSCC(=O)N[C@@H](Cc2cc(F)c(F)c(F)c2)C(=O)N(C)[C@@H](Cc2ccccc2)C(=O)N1C` [Example 9273] ({CH2CO}-[Phe(3,4,5-F3)][NMeF][NMeNle][dHyp]DV[NMeF]Y[dHyp]WYLCG-NH2; thioether N-13) was 1 to 9.9 nM; that for `CCCC[C@H]1C(=O)N2C[C@@H](O)C[C@@H]2C(=O)N[C@@H](CC(=O)O)C(=O)N[C@@H](C(C)C)C(=O)N(C)[C@@H](Cc2ccccc2)C(=O)N[C@@H](Cc2ccc(O)cc2)C(=O)N2C[C@@H](O)C[C@@H]2C(=O)N[C@@H](Cc2c[nH]c3ccccc23)C(=O)N[C@@H](Cc2ccc(O)cc2)C(=O)N[C@@H](CCCN)C(=O)N[C@H](C(=O)NCC(N)=O)CSCC(=O)N[C@@H](Cc2cc(F)c(F)c(F)c2)C(=O)N(C)[C@@H](Cc2ccccc2)C(=O)N1C` [Example 9274] ({CH2CO}-[Phe(3,4,5-F3)][NMeF][NMeNle][dHyp]DV[NMeF]Y[dHyp]WY[Orn]CG-NH2; thioether N-13) was 1 to 9.9 nM.
